Experiment [1] concerns T1, hASIC3 (h3) and/or hASIC1a (h1a).
T1 construct: EC50 (μM) in one experiment; HEK293
Put plainly: FlexStation/FLIPR assay, channel not marked in the cell. It counts as cell-based, human. The following applies: Table H, cells without channel mark; HEK293; read-out: EC50 (μM) Flex/FLIPR. The source says:
(§1) The MES-induced peak calcium response (or change in membrane potential), in the presence of test substance, is expressed relative to the MES response alone. Test substances that block the MES-induced calcium response (or change in membrane potential) are re-tested in triplicates. Confirmed hits are picked for further characterization by performing full dose-response curves to determine potency of each hit compound as represented by the IC50 values (i.e., the concentration of the test substance which inhibits 50% of the MES-induced calcium and/or membrane potentiation response; see, for example, FIG. 1).
(§2) The data shown in Table H was acquired using the FlexStation assay described in Example 1 on HEK293 cells expressing hASIC3 (h3) and/or hASIC1a (h1a).

Experiment [2] deals with T2, hASIC1a (Homo sapiens, UniProt P78348).
T2 sequence (P78348 1-528): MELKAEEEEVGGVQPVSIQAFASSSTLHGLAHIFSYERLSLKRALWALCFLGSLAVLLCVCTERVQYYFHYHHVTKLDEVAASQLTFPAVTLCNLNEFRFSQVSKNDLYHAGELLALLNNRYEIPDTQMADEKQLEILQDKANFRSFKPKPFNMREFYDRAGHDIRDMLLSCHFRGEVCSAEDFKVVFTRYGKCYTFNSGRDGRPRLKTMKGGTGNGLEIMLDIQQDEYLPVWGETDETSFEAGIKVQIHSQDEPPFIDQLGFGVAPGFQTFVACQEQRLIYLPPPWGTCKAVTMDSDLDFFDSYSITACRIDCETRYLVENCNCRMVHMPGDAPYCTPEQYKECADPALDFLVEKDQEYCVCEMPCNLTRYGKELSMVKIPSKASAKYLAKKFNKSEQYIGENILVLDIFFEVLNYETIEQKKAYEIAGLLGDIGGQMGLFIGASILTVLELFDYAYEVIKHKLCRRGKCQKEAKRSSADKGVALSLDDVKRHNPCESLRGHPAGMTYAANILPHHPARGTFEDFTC
Put plainly: Two-electrode voltage clamp in Xenopus laevis oocytes expressing hASIC1a (OpusExpress). The format is cell-based. Also noted: expressed in transfected cells; host or cells: Xenopus laevis oocytes, nuclear microinjection of cDNA (e.g. in pCDNA3). As to the method: Two-electrode voltage clamp electrophysiological assays in Xenopus laevis oocytes expressing gated ion channels are performed as follows:
Oocytes are surgically removed from adult Xenopus laevis and treated for 2 h at room temperature with 1 mg/ml type I collagenase (Sigma) in Barth's solution under mild agitation. Selected oocytes at stage IV-V are defolliculated manually before nuclear microinjection of 2.5-5 ng of a suitable expression vector, such as pCDNA3, comprising the nucleotide sequence encoding a gated ion channel subunit protein. In such an experiment, the oocytes express homomultimeric proton-gated ion channels on their surface. In an alternate experiment, one, two, three or more vectors comprising the coding sequences for distinct gated ion channel subunits are co-injected in the oocyte nuclei. In the latter case, oocytes express heteromultimeric proton-gated ion channels. […] Once impaled with the microelectrodes, oocytes are continuously superfused at 10-12 ml/min with a modified Ringer's solution containing 97 mM NaCl, 2 mM KCl, 1.8 mM CaCl2, and 10 mM HEPES brought to pH 7.4 with NaOH (Control Ringer). Test Ringer solution is prepared by replacing HEPES with MES and adjusting the pH to the desired acidic value. Compounds of the present invention are prepared in both the Control and Test Ringer solutions and applied to oocytes at room temperature through a computer-controlled switching valve system. […] Similarly, recordings can also be acquired in an automated multichannel oocytes system as the OpusExpress™ (Molecular Devices, Sunnyvale, Calif., USA).
Recordings were acquired from oocytes expressing homomeric hASIC1a using a two-electrode voltage-clamp configuration procedure as described herein.
Background: Two-electrode voltage clamp is typically applied to oocytes expressing channels or transporters.

Experiment [3] addresses T3, hASIC3 (Homo sapiens, UniProt Q9UHC3).
T3 sequence (Q9UHC3 1-531): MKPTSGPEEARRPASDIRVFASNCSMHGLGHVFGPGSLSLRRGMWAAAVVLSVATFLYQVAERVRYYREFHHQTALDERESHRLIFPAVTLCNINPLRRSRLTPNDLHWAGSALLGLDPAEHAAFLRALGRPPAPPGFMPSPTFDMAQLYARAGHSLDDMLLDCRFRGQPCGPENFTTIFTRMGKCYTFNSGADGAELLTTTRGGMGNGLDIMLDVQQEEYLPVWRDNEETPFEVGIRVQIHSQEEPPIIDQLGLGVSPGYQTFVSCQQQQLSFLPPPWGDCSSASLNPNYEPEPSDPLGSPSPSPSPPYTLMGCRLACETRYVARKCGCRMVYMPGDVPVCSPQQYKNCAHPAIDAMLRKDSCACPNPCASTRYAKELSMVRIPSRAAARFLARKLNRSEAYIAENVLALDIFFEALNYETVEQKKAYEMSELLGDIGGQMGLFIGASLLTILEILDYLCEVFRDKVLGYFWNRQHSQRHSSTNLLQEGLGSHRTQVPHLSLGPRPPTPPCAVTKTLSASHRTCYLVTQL
Put plainly: FlexStation assay on HEK293 cells expressing hASIC3. The settings on record: FlexStation (Flex), Tables A-F; read-out: Biological Data (IC50 uM) h3 (Flex). The format is cell-based. On the set-up: expressed in transfected cells; host or cells: HEK293 cells. As to the method:
A vial of FMP dye (Molecular Devices) is resuspended in 10.5 ml of assay buffer (48.3 mM NaCl, 93 mM NMDG, 5 mM KCl, 5 mM CaCl2, 1 mM MgCl2, 10 mM HEPES, pH 7.4). The culture medium is aspirated from the wells, and 100 μl of the FMP loading solution is added to each well. The cells are incubated at 37° C. for 30 min.
After the loading period, the loading solution is left on the cells and the membrane potential-induced fluorescence is measured in FLIPR™ or FlexStation™ (Molecular Devices, USA), or any other suitable equipment known to the skilled in the art.
For cells co-expressing ASIC1a and ASIC3 channels (e.g. HEK293 cells), membrane potential dye (FMP dye) is used and the FlexStation settings are as above.
as §1, §2

The target in experiment [4] is T2, hASIC1a. Put plainly: Whole-cell patch clamp of acid-induced currents in cells transfected with hASIC1a. The format is cell-based. Also noted: expressed in transfected cells. The following applies: Table H. As to the method:
Another example of an in vitro assessment method consists of using mammalian heterologous expression systems, which are known to those skilled in the art, and include a variety of mammalian cell lines such as COS, HEK, e.g., HEK293 and/or CHO, cells. Cell lines are transfected with gated ion channel(s) and used to perform electrophysiology as follows:
All experiments are performed at room temperature (20-25° C.) in voltage clamp using conventional whole cell patch clamp methods (Neher, E., et al. (1978) Pfluegers Arch 375:219-228).
The amplifier used is the EPC-9 (HEKA-electronics, Lambrect, Germany) run by a Macintosh G3 computer via an ITC-16 interface. Experimental conditions are set with the Pulse-software accompanying the amplifier. Data is low pass filtered and sampled directly to hard-disk at a rate of 3 times the cut-off frequency.
Pipettes are pulled from borosilicate glass using a horizontal electrode puller (Zeitz-lnstrumente, Augsburg, Germany). The pipette resistances are 2-3 MOhms in the salt solutions used in these experiments. The pipette electrode is a chloridized silver wire, and the reference is a silver chloride pellet electrode (In Vivo Metric, Healdsburg, USA) fixed to the experimental chamber. The electrodes are zeroed with the open pipette in the bath just prior to sealing.
Coverslips with the cells are transferred to a 15 μl experimental chamber mounted on the stage of an inverted microscope (IMT-2, Olympus) supplied with Nomarski optics. Cells are continuously superfused with extracellular saline at a rate of 2.5 ml/min. After giga-seal formation, the whole cell configuration is attained by suction. The cells are held at a holding voltage of −60 mV and at the start of each experiment the current is continuously measured for 45 s to ensure a stable baseline. Solutions of low pH (<7) are delivered to the chamber through a custom-made gravity-driven flowpipe, the tip of which is placed approximately 50 μm from the cell. Application is triggered when the tubing connected to the flowpipe is compressed by a valve controlled by the Pulse-software. Initially, low pH (in general, pH 6.5) is applied for 5 s every 60 s. The sample interval during application is 550 μs. After stable responses are obtained, the extracellular saline as well as the low-pH solution are switched to solutions containing the compound to be tested. The compound is present until responses of repeatable amplitude are achieved. Current amplitudes are measured at the peak of the responses, and effect of the compounds is calculated as the amplitude at compound equilibrium divided by the amplitude of the current evoked by the pulse just before the compound was included.
The following salt solutions are used: extracellular solution (mM): NaCl (140), KCl (4), CaCl2 (2), MgCl2 (4), HEPES (10, pH 7.4); intracellular solution (mM): KCl (120), KOH (31), MgCl2 (1.785), EGTA (10), HEPES (10, pH 7.2). In general, compounds for testing are dissolved in 50% DMSO at 500 fold the highest concentration used.
CHO cells were transfected with hASIC1a and used to perform full dose-inhibition curves with Compound B, and Compound R. Results are expressed as a fraction of the control peak current obtained in the absence of the test substance.
For orientation: Patch clamp records ionic current or voltage across a cell membrane.

Experiment [5] concerns the target T2, hASIC1a. Put plainly: FlexStation/FLIPR calcium-imaging assay, acid (MES)-induced response in ASIC1a expressing cells. The format is cell-based. Also noted: expressed in transfected cells. The settings on record: calcium mobilization assay, HEK293, n=3-7; read-out: FPAT-ASIC1a human/HEK293/k21 IC50. As to the method:
Identification of ASIC Antagonists Using Calcium-Imaging
ASIC1a expressing HEK293 or CHO cells are grown in culture medium (DMEM with 10% FBS), in polystyrene culture flasks ([…]) at 37° C. in a humidified atmosphere of 5% CO2. Confluency of cells should be 80-90% on day of plating. Cells are rinsed with 10 ml of PBS and re-suspended by addition of culture medium and trituration with a 25 ml pipette.
The cells are seeded at a density of approximately 1×10^5 cells/ml for HEK293 and 8×10^4 for CHO cells (100 μl/well) in black-walled, clear bottom, poly-D-lysin pre-treated 96-well plates. Plated cells were allowed to proliferate for 48 h before loading with dye.
Fluo-4/AM (1 mg, Molecular Probes) is dissolved in 912 μl DMSO. The Fluo-4/AM stock solution (1 mM) is diluted with culture medium to a final concentration of 2 μM (loading solution).
The culture medium is aspirated from the wells, and 80 μl of the Fluo-4/AM loading solution is added to each well. The cells are incubated at 37° C. for 30 min. When CHO cells are used, probenicid at 2.5 mM (final concentration) is added in the loading solution.
After the loading period (15-20 min., the loading solution is aspirated and the cells are washed twice with 100 μl modified Assay Buffer (145 mM NaCl, 5 mM KCl, 5 mM CaCl2, 1 mM MgCl2, 10 mM HEPES, pH 7.4) to remove extracellular dye. Following the second wash, 100 μl modified Assay Buffer is added to each well and the fluorescence is measured in FLIPR™ or FlexStation™ (Molecular Devices, USA), or any other suitable equipment known to the skilled in the art. When CHO cells are used, probenicid at 2.5 mM (final concentration) is added in the wash buffer.
First addition: 50 μl test solution at a rate of 26 μl/sec and a starting height of 125 μl
Second addition: 50 μl MES solution (20 mM, 5 mM final concentration) at a rate of 26 μl/sec and a starting height of 115 μl.
Reading intervals: pre-incubation—120 sec. antagonist phase, addition of MES at 145 sec. and reading time with agonist 100 sec (total run time of 240 sec).
Fluorescence obtained after stimulation is corrected for the mean basal fluorescence (in modified Assay Buffer).
as §1
For orientation: Calcium assays in cells follow changes in intracellular calcium, usually with a dye or a luminescent sensor.

Setting [6] is: OpusExpress (OX), Tables A-F, h1a printed in some cells only, read-out: Biological Data (IC50 uM) h1a (OX).
The mark [7] stands for this setting: Table H, read-out: IC50 (μM) Opus Express (h1a).

This is an account of results in US20070197509A1, “Compositions and methods for modulating gated ion channels” (PainCeptor Pharma Corporation, priority 2005, published 2007).

With `Cc1cc(N2CCN(CCc3ccccc3)CC2)c2ccccc2n1` [Compound D, 2-methyl-4-(4-phenethyl-piperazin-1-yl)-quinoline], in experiment [1], the EC50 is less than 10 µM. Besides, the IC50 in experiment [2] (setting [6]) and in experiment [2] (setting [7]) was more than 50 µM in each case.
Take `COc1ccc(CN2CCN(c3cc(C)nc4ccccc34)CC2)cc1` [Compound Q, 4-[4-(4-methoxy-benzyl)-piperazin-1-yl]-2-methyl-quinoline]: in experiment [1], the EC50 was less than 10 µM. In addition, the IC50 was 10 to 20 µM in experiment [3] and more than 50 µM in experiment [2] (setting [7]).
For the molecule `Cc1cc(N2CCN(CC3CCCCC3)CC2)c2ccccc2n1` [Compound O, 4-(4-cyclohexylmethyl-piperazin-1-yl)-2-methyl-quinoline], the EC50 in experiment [1] was more than 20 µM. Besides, the IC50 in experiment [3] is 5 to 15 µM; in experiment [2] (setting [6]), 20 to 30 µM; in experiment [2] (setting [7]), 23.9 µM.
Take `COc1ccc(-c2cc(C(=O)N3CCN(C)CC3)c3ccccc3n2)cc1OC` [Compound G, [2-(3,4-dimethoxy-phenyl)-quinolin-4-yl]-(4-methyl-piperazin-1-yl)-methanone]: in experiment [1], the EC50 is more than 20 µM.
As for `Cc1cc(N2CCCN(C)CC2)nc2cc(Cl)ccc12` [Compound F, 7-chloro-4-methyl-2-(4-methyl-[1,4]diazepan-1-yl)-quinoline], the EC50 in experiment [1] is less than 10 µM. For the same molecule, in experiment [4], the “IC50 (μM) Patch Clamp (h1a)” value is listed as “Inactive”.
Regarding `Cc1ccc(-c2nc(Nc3ccc(C(=O)O)cc3)c3ccccc3n2)cc1` [Compound K, 4-(2-p-tolyl-quinazolin-4-ylamino)-benzoic acid], in experiment [1], the EC50 was more than 10 µM. Also, the “IC50 (μM) Patch Clamp (h1a)” value in experiment [4] is “Inactive”. The “IC50 (μM) Opus Express (h1a)” value in experiment [2] (Table H) is on record as “Inactive”.
For the molecule `Brc1ccc(-c2nc(N3CCNCC3)c3ccccc3n2)cc1` [Compound C, 2-(4-bromo-phenyl)-4-piperazin-1-yl-quinazoline], the IC50 in experiment [5] is more than 20 µM.
